Measurements from patent publication US11274132B2, “Combined preparations of PKM2 modulators and HMGB1” (Ruprecht-Karls-Universität Heidelberg, priority 2015, dated 2022).

B1: GInHMGB1: HMGB1 polypeptide with its B-Box domain tyrosine residues replaced by glutamine (SEQ ID NO:12), expressed in HEK cells (protein)
chain: MGKGDPKKPRGKMSSYAFFVQTCREEHKKKHPDASVNFSEFSKKCSERWKTMSAKEKGKFEDMAKADKARYEREMKTYIPPKGETKKKFKDPNAPKRPPSAFFLFCSEQRPKIKGEHPGLSIGDVAKKLGEMWNNTAADDKQPQEKKAAKLKEKQEKDIAAQRAKGKPDAAKKGVVKAEKSKKKKEEEEDEEDEEDEEEEEDEEDEDEEEDDDDE
modifications: HMGB1 Y -> Q mutein

Tests used:
[1] = test system: glucose flux (glycolysis); test: Glycolysis: conversion of 5-3H-Glucose to 3H2O; assay type: cell-based, human; details: SW480 cells; co-treatment, glycyrrhizin 200 μM
Method: Lactate derived from the metabolism of ^13C6-D-glucose or ^13C5-glutamine was determined by comparing the CH3 group intensities of labeled and non-labeled lactate in NMR. Mitochondrial respiration was measured using an Oroboros 1 oxygraph system. Glycolysis was measured by monitoring the conversion of 5-^3H-Glucose to ^3H2O. Incorporation of ^14C into RNA ribose from U-^14C-labelled glucose was taken as glucose utilization in the pentose phosphate shunt. Enzymatic activities were determined in subcellular fractions as previously described^24.

[2] = test system: SW480 colorectal cancer cells; test: Crystal violet cytotoxicity assay; assay type: cell-based
Method: (§1) Human colon carcinoma cell lines SW480, HCT116, HT29 and Caco2, the human glioblastoma cell line U251MG and the Natural killer cell line NK-92 Cl were purchased from ATCC. Cell lines were regularly tested for contamination by multiplex PCR performed in the Genomics and Proteomics Core Facility 2 (DKFZ, Heidelberg, Germany). For experiments, cells were cultured for no more than 10 passages. Rho zero cells were generated as described earlier 1. (Gdynia, G. et al. Danger signaling protein HMGB1 induces a distinct form of cell death accompanied by formation of giant mitochondria. Cancer research 70, 8558-8568). Cells used in the experiments were cultured in RPMI (#1640, colon carcinomas, NK cells) or DMEM high glucose (#41965-039, glioblastoma cells) medium. Rho zero cells were generated as described earlier (Gdynia, G. et al. ibd.). Briefly, cells were cultured in RPMI medium (10% FCS, 1% P/S) supplemented with 250 ng/ml ethidiumbromide, 50 μg/ml L-pyruvate and 5 mg/ml uridine over a period of 12 weeks. For cytotoxicity measurements, cells were cultured in 96-well plates, treated with recombinant human HMGB1 protein (Sigma-Aldrich®), glycyrrhizinic acid ((3β, 18α)-30-hydroxy-11, 30-dioxoolean-12-en-3-yl 2-O-β-D-glucopyranuronosyl-β-D-glucopyranosiduronic acid)) (Sigma-Aldrich®), 10 μM (non-toxic) or 100 μM (cytotoxic) P-M2tide (aa sequence: GGAVDDDpYAQFANGG; #BML-P239-0001; Enzo Life Sciences) or 100 μM ML-265 (Cayman Chemical), then cell viability was assessed by crystal violet staining (Gillies, R. J., Didier, N. & Denton, M. Determination of cell number in monolayer cultures. Analytical biochemistry 159, 109-113 (1986)). Malic enzyme 1 knock-down was performed with 40 nM siRNA using lipofectamine in 6-well plates followed by treatment with 80 nM HMGB1 for 72 h. Sequences of siRNA were: ME1, 5′-[…]-3′ and scrambled control 5′-CCUGCAGUACUUCAAGCGGtt-3′. PKM2 siRNA was from Santa Cruz. A nonspecific siRNA served as control (Dharmacon, Schwerte, Germany). For overexpression of PKM2 or ME1, cells were transfected with pCMV-PKM2 (Sino Biological Inc., Beijing, China) or pCMV-ME1 (OriGene, Rockville, Md., USA) using Lipofectamine 2000. For cytotoxicity measurements confluent cells were cultured in 96-well plates if not otherwise indicated. Cytotoxic activity of supernatants from stimulated NK cells was assessed in 96-well plates for 3 days with RPMI medium as reference. Recombinant human HMGB1 (10 ng, Sigma) suited as positive control. For mass isotopomer assays, cells were cultured in glucose- or glutamine-free medium supplemented with either uniformly labeled (U)-13C-D-glucose or U-13C-glutamine (Sigma-Aldrich®).

HT29 cells = test: Crystal violet cytotoxicity assay; assay type: cell-based; details: supernatants of anti-Nkp30 stimulated blood NK cells; glycyrrhizin 200 μM, 72 h
Method: as §1

[3] = test system: HCT116 colorectal cancer cells; test: Crystal violet cytotoxicity assay; assay type: cell-based
Method: as §1

tetrameric PK M2 = target: T1, tetrameric PK M2 (Homo sapiens, UniProt P14618); test: Pyruvate kinase enzymatic assay in cytosolic fractions / homogenates (low PEP); assay type: cell-based; details: glycyrrhizin 200 μM
T1 construct: Activities of glycolytic enzymes measured in cytosolic fractions after treatment with HMGB1; endogenous in cells; host or cells: SW480, HCT116, HT29 cytosolic fractions; homogenates of human colon cancer tissue slices
T1 sequence (P14618 2-531): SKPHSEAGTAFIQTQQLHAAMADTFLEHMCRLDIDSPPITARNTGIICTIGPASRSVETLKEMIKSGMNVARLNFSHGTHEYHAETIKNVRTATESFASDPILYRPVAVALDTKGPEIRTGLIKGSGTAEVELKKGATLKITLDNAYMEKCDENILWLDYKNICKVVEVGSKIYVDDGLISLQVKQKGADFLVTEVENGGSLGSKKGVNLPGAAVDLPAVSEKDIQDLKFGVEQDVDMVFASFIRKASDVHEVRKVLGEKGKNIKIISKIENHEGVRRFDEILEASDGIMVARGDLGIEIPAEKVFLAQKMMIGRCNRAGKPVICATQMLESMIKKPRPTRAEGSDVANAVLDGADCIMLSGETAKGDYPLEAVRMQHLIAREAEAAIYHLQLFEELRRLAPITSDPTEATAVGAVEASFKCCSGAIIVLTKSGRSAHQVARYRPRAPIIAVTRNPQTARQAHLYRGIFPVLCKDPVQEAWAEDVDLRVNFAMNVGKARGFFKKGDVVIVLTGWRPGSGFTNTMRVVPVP
Method: Enzymatic activities of respiratory chain complexes, glycolytic proteins and malic enzyme were determined in subcellular fractions as previously described (Kaminski, M. M. et al. T cell activation is driven by an ADP-dependent glucokinase linking enhanced glycolysis with mitochondrial reactive oxygen species generation. Cell reports 2, 1300-1315 (2012).Bruncko, M. et al. Naphthamidine urokinase plasminogen activator inhibitors with improved pharmacokinetic properties. Bioorganic & medicinal chemistry letters 15, 93-98, (2005)) using a computer-tuneable spectrophotometer (Spectramax Plus Microplate Reader, Molecular Devices; Sunny Vale, Calif., USA) operating in the dual wavelength mode; samples were analyzed in temperature-controlled 96-well plates in a final volume of 300 μl. Activity of ME1 was recorded in presence of increasing amounts of malic acid (0.02, 0.05, 0.1, 0.2, 0.5, 1, 2.5 mM). Vmax and Km were calculated using a Hanes-Woolf plot. In the presence of high substrate levels the Km for malic acid was similar in all three tested cell lines (SW480: 0.32 mM, HCT116: 0.30 mM, HT29: 0.31 mM). Vmax (mU/mg protein) values were 3.38 (SW480, 0.5-5.0 mM malic acid), 5.77 (HCT116, 0.5-5.0 mM malic acid) and 3.68 (HT29, 0.5-5.0 mM malic acid) and 1.68 (SW480, 0.02-0.2 mM malic acid), 3.24 (HCT116, 0.02-0.2 mM malic acid) and 1.89 (HT29, 0.02-0.2 mM malic acid). Two isoforms of ME1, mitochondrial (NAD(P)+dependent) ME3 and mitochondrial (NAD+dependent) ME2, had very low or no detectable activities (data not shown).

[4] = test system: colon carcinoma cell lines; test: LDH release assay; assay type: cell-based, human; details: all colon carcinoma cell lines used; p<0.05, n=4
Method: Lactate dehydrogenase activity was assayed spectrophotometrically by measuring the oxidation of NADH with pyruvate substrate at 340 nm as described in Bergmeyer and Berndt E. (1974). Results were analyzed using the following equation: […]

[5] = test system: colon carcinoma cell lines; test: MTT assay; assay type: cell-based, human; details: all colon carcinoma cell lines used; 0, 24, 48 hours; p<0.05, n=4
Method: Assays were performed at three time points (0, 24, 48 hours), and the experiment was repeated four times. At each time point the cell viability was measured using the 3-(4,5-dimethylthiazol-2-yl)-2,5-diphenyl tetrazolium bromide (MTT) assay. The MTT assay was performed as described by Mosmann (Mosmann T. Rapid colorimetric assay for cellular growth and survival: application to proliferation and cytotoxicity assays. J Immunol Methods. 1983;65:55-63.). In brief, at each time point, medium was aspirated from the wells and MTT (1 mg/ml) was gently added to each well. The cells were incubated for 3 hours at 37° C. in 5% CO2, after which the MTT was aspirated and acidified isopropanol (0.04 M HCl) added to solubilize the reduced blue formazan crystals. Aliquots were transferred to a 96-well plate and the absorbance measured at a test filter of 590 nm and a reference filter of 630 nm on a 96-well plate reader.

[6] = glycyrrhizin as inhibitor of HMGB1
[7] = supernatants of anti-Nkp30 stimulated blood NK cells, glycyrrhizin 200 μM, 72 h

Molecule | reversal of HMGB1-induced metabolic shift [1] | blocking of HMGB1 cytotoxic effects [2, 6] | effect on NK cell-dependent cytotoxic effect [2, 7] | effect on NK cell-dependent cytotoxic effect (HT29 cells) | blocking of HMGB1 cytotoxic effects [3, 6] | effect on NK cell-dependent cytotoxic effect [3, 7] | restoration of tetrameric PK M2 activity inhibited by NK cell supernatant (tetrameric PK M2) | release of LDH into the medium compared to the untreated control [4] | proliferation (cell viability, MTT) compared to the untreated control [5]
CC1(C)[C@@H](O[C@H]2O[C@H](C(=O)O)[C@@H](O)[C@H](O)[C@H]2O[C@@H]2O[C@H](C(=O)O)[C@@H](O)[C@H](O)[C@H]2O)CC[C@]2(C)[C@H]3C(=O)C=C4[C@@H]5C[C@@](C)(C(=O)O)CC[C@]5(C)CC[C@@]4(C)[C@]3(C)CC[C@@H]12 [glycyrrhizin, (3β, 18α)-30-hydroxy-11, 30-dioxoolean-12-en-3-yl 2-O-β-D-glucopyranuronosyl-β-D-glucopyranosiduronic acid, reference compound] | partly reversed | significantly blocked | not changed | diminished | significantly blocked | diminished | completely restored | – | –
B1 | – | – | – | – | – | – | – | significant release of LDH | significant decrease in proliferation
